Blank lines part the entries; values can stand above or below the compound they belong to.
Experiments:
Erk3 = Erk3 (Homo sapiens, UniProt Q16659); assay: biochemical; settings: read-out: dTm 12
MSSK1 = MSSK1 (Homo sapiens, UniProt Q9UPE1); assay: biochemical; settings: read-out: dTm 12
CK1e = CK1e (Homo sapiens, UniProt P49674); assay: biochemical; settings: read-out: dTm 12
SLK = SLK (Homo sapiens, UniProt Q9H2G2); assay: biochemical; settings: read-out: dTm 12
BMX = molecular target: T1, BMX (Homo sapiens, UniProt P51813); assay: NanoBRET target engagement; format: cell-based
T1 sequence (P51813 1-675): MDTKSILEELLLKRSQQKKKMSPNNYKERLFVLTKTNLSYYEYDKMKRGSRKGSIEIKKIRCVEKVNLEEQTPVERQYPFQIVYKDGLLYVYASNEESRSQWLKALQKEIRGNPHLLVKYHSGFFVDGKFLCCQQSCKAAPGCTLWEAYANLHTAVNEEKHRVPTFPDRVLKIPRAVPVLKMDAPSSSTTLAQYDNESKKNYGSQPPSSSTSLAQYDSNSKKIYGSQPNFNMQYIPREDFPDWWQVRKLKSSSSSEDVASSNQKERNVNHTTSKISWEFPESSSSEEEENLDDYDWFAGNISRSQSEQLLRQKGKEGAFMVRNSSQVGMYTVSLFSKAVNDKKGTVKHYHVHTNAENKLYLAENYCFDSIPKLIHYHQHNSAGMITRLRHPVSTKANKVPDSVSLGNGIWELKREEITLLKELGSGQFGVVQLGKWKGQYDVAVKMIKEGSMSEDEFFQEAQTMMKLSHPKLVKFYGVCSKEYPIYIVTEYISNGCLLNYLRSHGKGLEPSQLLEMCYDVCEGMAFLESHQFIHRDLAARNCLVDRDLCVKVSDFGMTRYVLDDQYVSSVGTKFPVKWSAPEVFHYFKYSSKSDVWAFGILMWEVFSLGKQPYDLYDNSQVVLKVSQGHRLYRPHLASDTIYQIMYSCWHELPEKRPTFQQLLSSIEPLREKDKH

GAK = GAK (Homo sapiens, UniProt O14976); assay: NanoBRET target engagement; format: cell-based
Sequence of GAK (O14976 2-1311): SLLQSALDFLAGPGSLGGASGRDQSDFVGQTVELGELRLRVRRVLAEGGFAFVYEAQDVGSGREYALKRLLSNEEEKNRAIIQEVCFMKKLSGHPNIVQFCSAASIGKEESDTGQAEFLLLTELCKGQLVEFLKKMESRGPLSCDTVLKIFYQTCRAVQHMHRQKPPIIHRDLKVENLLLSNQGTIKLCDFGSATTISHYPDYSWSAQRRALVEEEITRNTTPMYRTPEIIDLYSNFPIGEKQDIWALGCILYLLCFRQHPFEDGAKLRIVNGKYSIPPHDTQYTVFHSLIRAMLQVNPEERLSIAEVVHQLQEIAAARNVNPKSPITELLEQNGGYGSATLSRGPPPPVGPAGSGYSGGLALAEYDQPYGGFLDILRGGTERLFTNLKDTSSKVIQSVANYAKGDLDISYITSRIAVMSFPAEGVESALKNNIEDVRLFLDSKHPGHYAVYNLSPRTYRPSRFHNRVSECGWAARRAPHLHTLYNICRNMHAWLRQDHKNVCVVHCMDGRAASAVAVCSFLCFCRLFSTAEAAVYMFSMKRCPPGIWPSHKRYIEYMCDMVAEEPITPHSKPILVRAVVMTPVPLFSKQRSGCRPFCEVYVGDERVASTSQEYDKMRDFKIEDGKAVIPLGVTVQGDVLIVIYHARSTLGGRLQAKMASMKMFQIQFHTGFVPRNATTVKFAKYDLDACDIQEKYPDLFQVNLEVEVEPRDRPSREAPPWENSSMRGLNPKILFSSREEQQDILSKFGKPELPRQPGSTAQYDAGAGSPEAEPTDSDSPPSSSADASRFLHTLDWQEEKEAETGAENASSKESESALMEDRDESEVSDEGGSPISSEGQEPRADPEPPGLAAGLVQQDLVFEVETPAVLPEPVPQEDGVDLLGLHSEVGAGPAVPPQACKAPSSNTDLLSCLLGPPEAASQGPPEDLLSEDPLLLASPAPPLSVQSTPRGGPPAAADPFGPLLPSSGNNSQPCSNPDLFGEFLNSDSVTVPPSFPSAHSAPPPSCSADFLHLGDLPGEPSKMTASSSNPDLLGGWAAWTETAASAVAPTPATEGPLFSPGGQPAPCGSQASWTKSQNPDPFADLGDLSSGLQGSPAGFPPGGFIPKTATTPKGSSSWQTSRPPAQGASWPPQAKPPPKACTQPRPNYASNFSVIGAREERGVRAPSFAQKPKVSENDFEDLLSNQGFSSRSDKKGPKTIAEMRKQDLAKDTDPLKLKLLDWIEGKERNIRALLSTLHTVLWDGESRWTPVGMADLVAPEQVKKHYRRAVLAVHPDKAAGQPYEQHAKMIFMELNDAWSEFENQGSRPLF

Sequence of CK1e (P49674 whole entry): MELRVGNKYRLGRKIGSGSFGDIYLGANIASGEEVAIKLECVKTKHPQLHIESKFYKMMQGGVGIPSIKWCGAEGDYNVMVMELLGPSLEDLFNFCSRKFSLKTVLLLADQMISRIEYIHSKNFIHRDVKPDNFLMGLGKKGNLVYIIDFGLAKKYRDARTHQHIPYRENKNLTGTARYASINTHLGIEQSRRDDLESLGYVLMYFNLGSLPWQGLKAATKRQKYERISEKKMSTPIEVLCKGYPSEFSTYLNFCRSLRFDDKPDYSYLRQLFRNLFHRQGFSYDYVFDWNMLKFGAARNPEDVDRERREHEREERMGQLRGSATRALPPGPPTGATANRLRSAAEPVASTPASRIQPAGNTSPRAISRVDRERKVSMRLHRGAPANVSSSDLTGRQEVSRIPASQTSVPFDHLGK
Sequence of Erk3 (Q16659 whole entry): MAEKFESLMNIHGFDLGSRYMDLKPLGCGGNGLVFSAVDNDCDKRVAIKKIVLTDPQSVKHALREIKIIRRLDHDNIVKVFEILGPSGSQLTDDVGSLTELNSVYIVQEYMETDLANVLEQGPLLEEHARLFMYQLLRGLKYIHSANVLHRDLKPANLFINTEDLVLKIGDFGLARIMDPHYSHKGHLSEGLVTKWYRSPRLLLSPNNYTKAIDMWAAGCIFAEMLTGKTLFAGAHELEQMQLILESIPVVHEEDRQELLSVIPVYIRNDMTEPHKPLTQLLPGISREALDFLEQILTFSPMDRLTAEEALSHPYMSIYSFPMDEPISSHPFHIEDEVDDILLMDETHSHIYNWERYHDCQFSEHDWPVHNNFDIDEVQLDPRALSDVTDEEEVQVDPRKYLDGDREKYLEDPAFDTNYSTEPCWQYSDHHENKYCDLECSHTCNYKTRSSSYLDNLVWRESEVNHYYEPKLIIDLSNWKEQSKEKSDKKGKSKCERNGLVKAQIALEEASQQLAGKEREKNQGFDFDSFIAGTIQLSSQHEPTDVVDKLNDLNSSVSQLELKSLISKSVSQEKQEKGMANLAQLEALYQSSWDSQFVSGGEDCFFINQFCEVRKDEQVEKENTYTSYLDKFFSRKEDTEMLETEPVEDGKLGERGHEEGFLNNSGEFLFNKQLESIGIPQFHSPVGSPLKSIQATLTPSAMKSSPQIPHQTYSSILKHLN
Sequence of SLK (Q9H2G2 whole entry): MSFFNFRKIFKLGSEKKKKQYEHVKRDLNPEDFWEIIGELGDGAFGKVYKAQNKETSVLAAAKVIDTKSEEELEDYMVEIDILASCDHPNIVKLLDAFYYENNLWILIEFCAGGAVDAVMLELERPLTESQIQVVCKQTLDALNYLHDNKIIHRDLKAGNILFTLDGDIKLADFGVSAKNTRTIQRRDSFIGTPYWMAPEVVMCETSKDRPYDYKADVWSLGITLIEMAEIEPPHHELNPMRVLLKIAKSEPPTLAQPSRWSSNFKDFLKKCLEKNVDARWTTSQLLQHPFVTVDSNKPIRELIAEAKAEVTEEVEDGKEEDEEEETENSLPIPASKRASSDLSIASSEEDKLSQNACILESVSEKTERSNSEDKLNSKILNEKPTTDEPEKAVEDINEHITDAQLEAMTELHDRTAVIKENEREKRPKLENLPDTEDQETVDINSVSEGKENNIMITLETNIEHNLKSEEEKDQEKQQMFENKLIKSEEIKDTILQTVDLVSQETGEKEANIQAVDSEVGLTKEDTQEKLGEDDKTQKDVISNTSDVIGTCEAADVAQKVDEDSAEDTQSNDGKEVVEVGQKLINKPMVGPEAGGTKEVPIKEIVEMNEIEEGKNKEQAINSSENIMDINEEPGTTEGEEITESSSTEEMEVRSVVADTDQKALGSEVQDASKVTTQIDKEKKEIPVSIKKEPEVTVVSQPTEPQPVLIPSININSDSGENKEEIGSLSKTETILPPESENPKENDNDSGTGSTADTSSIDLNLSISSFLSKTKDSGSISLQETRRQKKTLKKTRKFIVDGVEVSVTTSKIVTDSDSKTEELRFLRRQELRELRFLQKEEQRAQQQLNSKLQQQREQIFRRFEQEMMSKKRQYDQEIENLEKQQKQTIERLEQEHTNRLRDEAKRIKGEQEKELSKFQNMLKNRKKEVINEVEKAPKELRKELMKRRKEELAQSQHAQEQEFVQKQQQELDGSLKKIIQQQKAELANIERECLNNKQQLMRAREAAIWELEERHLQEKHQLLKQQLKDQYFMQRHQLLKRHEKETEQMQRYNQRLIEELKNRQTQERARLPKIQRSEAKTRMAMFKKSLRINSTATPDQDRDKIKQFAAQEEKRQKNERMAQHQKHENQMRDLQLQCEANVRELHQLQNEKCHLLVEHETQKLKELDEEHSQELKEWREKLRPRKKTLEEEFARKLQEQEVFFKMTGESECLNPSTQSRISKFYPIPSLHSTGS
Sequence of MSSK1 (Q9UPE1 whole entry): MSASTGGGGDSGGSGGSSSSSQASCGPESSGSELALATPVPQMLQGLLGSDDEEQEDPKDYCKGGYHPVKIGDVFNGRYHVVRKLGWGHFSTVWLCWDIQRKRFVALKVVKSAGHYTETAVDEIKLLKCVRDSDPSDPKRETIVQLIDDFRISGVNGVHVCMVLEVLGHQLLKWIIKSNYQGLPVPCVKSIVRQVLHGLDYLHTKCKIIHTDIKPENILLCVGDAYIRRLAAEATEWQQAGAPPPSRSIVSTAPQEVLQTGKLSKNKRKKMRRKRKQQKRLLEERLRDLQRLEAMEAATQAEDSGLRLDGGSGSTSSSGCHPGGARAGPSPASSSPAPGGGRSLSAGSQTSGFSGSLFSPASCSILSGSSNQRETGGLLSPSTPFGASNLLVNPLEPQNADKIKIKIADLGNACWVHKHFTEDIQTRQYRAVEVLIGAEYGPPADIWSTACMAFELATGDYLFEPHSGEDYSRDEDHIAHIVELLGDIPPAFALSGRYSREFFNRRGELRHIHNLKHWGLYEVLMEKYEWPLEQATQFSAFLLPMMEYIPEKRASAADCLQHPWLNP

ΔTm at 10 µM (Erk3): 0.7 °C | ΔTm at 10 µM (MSSK1): -0.2 °C | ΔTm at 10 µM (CK1e): 3.1 °C | ΔTm at 10 µM (SLK): 2.9 °C
Compound: CNc1ncc2cc(-c3cc(F)c(-c4cccc(C)n4)cc3F)c(=O)n(CCCCN)c2n1 [compound 12, 8-(4-Aminobutyl)-6-(2,5-difluoro-4-(6-methylpyridin-2-yl)phenyl)-2-(methylamino)pyrido[2,3-d]pyrimidin-7(8H)-one]

IC50 (BMX): > 1000 nM
Compound: CNc1ncc2cc(-c3cc(Cl)ccc3Cl)c(=O)n(CCCCN)c2n1 [compound 8, 8-(4-Aminobutyl)-6-(2,5-dichlorophenyl)-2-(methylamino)pyrido[2,3-d]pyrimidin-7(8H)-one]

IC50 (GAK): > 1000 nM
Compound: CNc1ncc2cc(-c3ccccc3Cl)c(=O)n(CCCCN)c2n1 [compound 4, 8-(4-Aminobutyl)-6-(2-chlorophenyl)-2-(methylamino)pyrido[2,3-d]pyrimidin-7(8H)-one]
